In brackets after ≈: the same amount, converted by molar mass. Where a SMILES comes first, the peptide text is derived from it. Bridges are numbered along the chain shown (N, C = ends). Roman numbers before positions name the chains, in order. [ ]: non-standard residue; d: D form. The star is where a group is joined. Thr(ol) = C[C@@H](O)[C@H](N)CO; Tle = CC(C)(C)[C@H](N)C(=O)O; Hiv = CC(C)[C@H](O)C(=O)O; dDab = NCC[C@@H](N)C(=O)O; hSer = N[C@@H](CCO)C(=O)O; NHCH(CH2OH)2 = OCC(CO)N*; Nle = CCCC[C@H](N)C(=O)O; Orn = NCCC[C@H](N)C(=O)O; Dab = NCC[C@H](N)C(=O)O; Abu = CC[C@H](N)C(=O)O; Dap = NC[C@H](N)C(=O)O; NHCH2CH2OH = OCCN*
What was measured:
Assay type in all cases: cell-based
[1] = system: human red blood cells (hRBC); experiment: Hemolysis; details: red cells of human, 1 h, 200
How it was run: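 Hemoglobin release from PBS-washed hRBC at 20% (v/v), incubated 1 h at 37° C with peptides at 200 μg/mL, is measured at 540 nm. Values are blank corrected and given as a fraction of Triton X-100 lysis × 100%.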

[2] = system: Escherichia coli 926415; details: 926415
How it was run: (§1)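 Two-fold peptide dilutions in polysorbate 80-containing (0.002% final) cation-adjusted Mueller-Hinton II broth were inoculated with about 10^6 CFU/mL. The MIC was taken as the lowest concentration, in μg/mL, preventing visible growth at 18-20 hours and 35° C.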

[3] = system: Pseudomonas aeruginosa ATCC 27853; details: ATCC 27853
How it was run: as §1

[4] = system: Klebsiella pneumoniae SSI #3010; details: SSI #3010
How it was run: as §1

[5] = system: Acinetobacter baumannii 872842; details: 872842
How it was run: as §1

[6] = system: Enterobacter cloacae 848840; details: 848840
How it was run: as §1

[7] = system: Acinetobacter baumannii DSM 30008; details: DSM 30008
How it was run: as §1

[8] = system: Escherichia coli ATCC 25922; details: ATCC 25922
How it was run: as §1

[9] = system: Klebsiella pneumoniae 968733; details: 968733
How it was run: as §1

Compound | Hemolysis at 200 μg/mL [1] [%] | MIC [2] [µg/mL] | MIC [3] [µg/mL] | MIC [4] [µg/mL] | MIC [5] [µg/mL] | MIC [6] [µg/mL] | MIC [7] [µg/mL] | MIC [8] [µg/mL] | MIC [9] [µg/mL] | Pseudomonas aeruginosa ATCC 27853 MIC [3] [µg/mL] | Klebsiella pneumoniae SSI #3010 MIC [4] [µg/mL] | Acinetobacter baumannii DSM 30008 MIC [7] [µg/mL] | Escherichia coli ATCC 25922 MIC [8] [µg/mL]
CCCC[C@H](NC(C)=O)C(=O)N[C@H]1CSSC[C@@H](C(=O)N[C@H](C(N)=O)[C@@H](C)O)NC(=O)[C@H](C(C)(C)C)NC(=O)[C@H](CO)NC(=O)[C@H](Cc2c[nH]c3ccccc23)NC(=O)[C@H](CO)NC(=O)[C@@H](CCN)NC(=O)[C@H](CCC(=O)N[C@@H](CCN)C(=O)N[C@H](C(=O)N[C@@H](CN)C(=O)N[C@H]2CCNC(=O)[C@H]([C@@H](C)O)NC(=O)[C@H](CCN)NC(=O)[C@H](CCN)NC(=O)[C@H](CC)NC(=O)[C@@H](CC(C)C)NC(=O)[C@H](CCN)NC2=O)[C@@H](C)O)NC(=O)[C@H](CCN)NC(=O)[C@H](Cc2ccc(O)cc2)NC1=O [Ex. 142] (I: Ac-[Nle]CY[Dab]E[dDab]SWS[Tle]CT-NH2 / II: [Dab]T[Dap][Dab][Dab][dL][Abu][Dab][Dab]T; disulfide I:2-I:11; amide I:5-II:N; lactam II:4-II:C) | <1 | 0.03125 (≈ 0.013 µM) | 0.125 (≈ 0.0518 µM) | 0.03125 (≈ 0.013 µM) | 0.03125 (≈ 0.013 µM) | 0.125 (≈ 0.0518 µM) | 0.03125 (≈ 0.013 µM) | 0.0625 (≈ 0.0259 µM) | 0.0625 (≈ 0.0259 µM) | – | – | – | –
CC(=O)N[C@H](C(=O)N[C@H]1CSSC[C@@H](C(=O)N[C@@H](CO)C(=O)N[C@H](CC(=O)O)C(N)=O)NC(=O)[C@H](C(C)C)NC(=O)[C@H](CO)NC(=O)[C@H](Cc2c[nH]c3ccccc23)NC(=O)[C@H](CO)NC(=O)[C@@H](CCN)NC(=O)[C@H](CCC(=O)N[C@@H](CCN)C(=O)N[C@H](C(=O)N[C@@H](CN)C(=O)N[C@H]2CCNC(=O)[C@H]([C@@H](C)O)NC(=O)[C@H](CCN)NC(=O)[C@H](CCN)NC(=O)[C@H](CC(C)C)NC(=O)[C@@H](CC(C)C)NC(=O)[C@H](CCN)NC2=O)[C@@H](C)O)NC(=O)[C@H](CCN)NC(=O)[C@H](Cc2ccc(O)cc2)NC1=O)C(C)C [Ex. 374] (I: Ac-VCY[Dab]E[dDab]SWSVCS[dD]-NH2 / II: [Dab]T[Dap][Dab][Dab][dL]L[Dab][Dab]T; disulfide I:2-I:11; amide I:5-II:N; lactam II:4-II:C) | <1 | 0.5 (≈ 0.199 µM) | – | – | 0.25 (≈ 0.0994 µM) | 0.25 (≈ 0.0994 µM) | – | – | 1 (≈ 0.398 µM) | 0.125 | 0.0625 | 0.0625 | 0.0625
CC(C)C[C@@H]1NC(=O)[C@@H](CC(C)C)NC(=O)[C@H](CCN)NC(=O)[C@@H](NC(=O)[C@H](CN)NC(=O)[C@@H](NC(=O)[C@H](CCN)NC(=O)CC[C@@H]2NC(=O)CNC(=O)[C@H](CCCN)NC(=O)[C@H](CCN)NC(=O)[C@H](Cc3ccc(O)cc3)NC(=O)[C@@H](NC(=O)[C@@H](O)C(C)C)CSSC[C@@H](C(=O)NC(CO)CO)NC(=O)[C@H](C(C)(C)C)NC(=O)[C@H](CO)NC(=O)[C@H](Cc3c[nH]c4ccccc34)NC2=O)[C@@H](C)O)CCNC(=O)[C@H]([C@@H](C)O)NC(=O)[C@H](CCN)NC(=O)[C@H](CCN)NC1=O [Ex. 173] (I: H-[Hiv]CY[Dab][Orn]GEWS[Tle]C-{NHCH(CH2OH)2} / II: [Dab]T[Dap][Dab][Dab][dL]L[Dab][Dab]T; disulfide I:2-I:11; amide I:7-II:N; lactam II:4-II:C) | <1 | 0.25 (≈ 0.107 µM) | 0.5 (≈ 0.213 µM) | 0.125 (≈ 0.0534 µM) | 0.125 (≈ 0.0534 µM) | 4 (≈ 1.71 µM) | 0.0625 (≈ 0.0267 µM) | 0.125 (≈ 0.0534 µM) | 2 (≈ 0.854 µM) | – | – | – | –
CC(C)C[C@@H]1NC(=O)[C@@H](CC(C)C)NC(=O)[C@H](CCN)NC(=O)[C@@H](NC(=O)[C@H](CCN)NC(=O)[C@@H](NC(=O)[C@H](CCN)NC(=O)CC[C@@H]2NC(=O)[C@H](CCN)NC(=O)[C@H]([C@@H](C)O)NC(=O)[C@@H](NC(=O)[C@@H](O)C(C)C)CSSC[C@@H](C(=O)N[C@@H](Cc3ccc(O)cc3)C(=O)NCCO)NC(=O)[C@H](C(C)(C)C)NC(=O)[C@H](CO)NC(=O)[C@H](Cc3c[nH]c4ccccc34)NC(=O)[C@H](CCO)NC(=O)[C@@H](CCN)NC2=O)[C@@H](C)O)CCNC(=O)[C@H]([C@@H](C)O)NC(=O)[C@H](CCN)NC(=O)[C@H](CCN)NC1=O [Ex. 70] (I: H-[Hiv]CT[Dab]E[dDab][hSer]WS[Tle]CY-NHCH2CH2OH / II: [Dab]T[Dab][Dab][Dab][dL]L[Dab][Dab]T; disulfide I:2-I:11; amide I:5-II:N; lactam II:4-II:C) | <1 | 0.5 (≈ 0.203 µM) | 0.125 (≈ 0.0509 µM) | 0.125 (≈ 0.0509 µM) | 0.25 (≈ 0.102 µM) | 0.125 (≈ 0.0509 µM) | 0.0625 (≈ 0.0254 µM) | 0.125 (≈ 0.0509 µM) | 0.25 (≈ 0.102 µM) | – | – | – | –
CC(=O)N[C@H](C(=O)N[C@H]1CCNC(=O)C[C@@H](C(=O)N[C@@H](CO)C(N)=O)NC(=O)[C@H](C(C)(C)C)NC(=O)[C@H](CO)NC(=O)[C@H](Cc2c[nH]c3ccccc23)NC(=O)[C@H](CO)NC(=O)[C@@H](CCN)NC(=O)[C@H](CCC(=O)N[C@@H](CCN)C(=O)N[C@H](C(=O)N[C@@H](CN)C(=O)N[C@H]2CCNC(=O)[C@H]([C@@H](C)O)NC(=O)[C@H](CCN)NC(=O)[C@H](CCN)NC(=O)[C@H](CC(C)C)NC(=O)[C@@H](CC(C)C)NC(=O)[C@H](CCN)NC2=O)[C@@H](C)O)NC(=O)[C@H](CN)NC(=O)[C@H](Cc2ccc(O)cc2)NC1=O)C(C)C [Ex. 148] (I: Ac-V[Dab]Y[Dap]E[dDab]SWS[Tle]DS-NH2 / II: [Dab]T[Dap][Dab][Dab][dL]L[Dab][Dab]T; lactam I:2-I:11, II:4-II:C; amide I:5-II:N) | <1 | 0.125 (≈ 0.0523 µM) | 0.125 (≈ 0.0523 µM) | 0.0625 (≈ 0.0261 µM) | 0.0625 (≈ 0.0261 µM) | 0.0625 (≈ 0.0261 µM) | 0.03125 (≈ 0.0131 µM) | 0.03125 (≈ 0.0131 µM) | 0.25 (≈ 0.105 µM) | – | – | – | –
CC[C@H](C)[C@@H]1NC(=O)[C@H](CO)NC(=O)[C@H](Cc2c[nH]c3ccccc23)NC(=O)[C@H](CO)NC(=O)[C@@H](CCN)NC(=O)[C@H](CCC(=O)N[C@@H](CCN)C(=O)N[C@H](C(=O)N[C@@H](CN)C(=O)N[C@H]2CCNC(=O)[C@H]([C@@H](C)O)NC(=O)[C@H](CCN)NC(=O)[C@H](CCN)NC(=O)[C@H](CC(C)C)NC(=O)[C@@H](CC(C)C)NC(=O)[C@H](CCN)NC2=O)[C@@H](C)O)NC(=O)[C@H](CCN)NC(=O)[C@H](Cc2ccc(O)cc2)NC(=O)[C@@H](NC(=O)[C@@H](NC(C)=O)C(C)C)CCNC(=O)CC[C@@H](C(=O)N[C@@H](CO)C(N)=O)NC1=O [Ex. 324] (I: Ac-V[Dab]Y[Dab]E[dDab]SWSIES-NH2 / II: [Dab]T[Dap][Dab][Dab][dL]L[Dab][Dab]T; lactam I:2-I:11, II:4-II:C; amide I:5-II:N) | <1 | 0.125 (≈ 0.0517 µM) | – | – | 0.125 (≈ 0.0517 µM) | 0.125 (≈ 0.0517 µM) | – | – | 0.5 (≈ 0.207 µM) | 0.0625 | 0.0625 | 0.0625 | 0.0625
CC(C)C[C@@H]1NC(=O)[C@@H](CC(C)C)NC(=O)[C@H](CCN)NC(=O)[C@@H](NC(=O)[C@H](CCN)NC(=O)[C@@H](NC(=O)[C@H](CCN)NC(=O)CC[C@@H]2NC(=O)[C@H](CO)NC(=O)[C@H](Cc3ccc(O)cc3)NC(=O)[C@@H](NC(=O)[C@@H](O)C(C)C)CSSC[C@@H](C(=O)N[C@H](CO)[C@@H](C)O)NC(=O)[C@H](C(C)(C)C)NC(=O)[C@H](CO)NC(=O)[C@H](Cc3c[nH]c4ccccc34)NC(=O)[C@H](CCO)NC(=O)[C@@H](CCN)NC2=O)[C@@H](C)O)CCNC(=O)[C@H]([C@@H](C)O)NC(=O)[C@H](CCN)NC(=O)[C@H](CCN)NC1=O [Ex. 88] (I: H-[Hiv]CYSE[dDab][hSer]WS[Tle]C[Thr(ol)] / II: [Dab]T[Dab][Dab][Dab][dL]L[Dab][Dab]T; disulfide I:2-I:11; amide I:5-II:N; lactam II:4-II:C) | <1 | 0.125 (≈ 0.0523 µM) | 0.125 (≈ 0.0523 µM) | 0.125 (≈ 0.0523 µM) | 0.125 (≈ 0.0523 µM) | 0.125 (≈ 0.0523 µM) | 0.03125 (≈ 0.0131 µM) | 0.0625 (≈ 0.0262 µM) | 0.125 (≈ 0.0523 µM) | – | – | – | –

— US11629171B2, “Beta-hairpin peptidomimetics” (POLYPHOR AG, priority 2017, dated 2023)
